Source: patent US9603896B2, “Peptide compounds and methods of production and use thereof” (priority 2012, dated 2017)
Like-named read-outs stand apart in the source and are kept apart here. Ends that are not written are not given here.

Tests used:
[1] = tested on: Acinetobacter baumannii ATCC® BAA-747™; test: In vitro bactericidal assay (CFU remaining, log reduction); format: cell-based; conditions: for reduction of CFU/ml / bactericidal activity against Acinetobacter baumannii: 60 minutes; for reduction of CFU/ml: highest peptide concentrations (25 μM); for bactericidal activity against Acinetobacter baumannii: peptides up to 25 μM, gentamicin 4 μg/ml
Protocol: The three peptide compounds BCC01-5RMP (SEQ ID NO:21), BCC02-5RMP (SEQ ID NO:22), and BCC03-5RMP (SEQ ID NO:23) were assayed for in vitro bactericidal activity against Pseudomonas aeruginosa, Escherichia coli, Salmonella typhimurium, and Acinetobacter baumannii. The starting inoculum for all experiments was 1×10^6 colony forming units (CFU)/ml. The CFU remaining at the end of 60 to 180 minute incubation was determined, and the data plotted as a log reduction in CFU/ml.
For FIGS. 10-13, in vitro bactericidal assays were performed using a starting inoculum of 1×10^6 CFU/ml of the bacterial suspension. The CFU remaining at the end of the 60-180 minute incubation was determined, and the data was plotted as log reduction in CFU/ml.
In particular, each of the test peptides (CAP37 peptides 120-146WR, 120-146WH, and 95-122 (SEQ ID NOs: 30, 31, and 26, respectively)) was used at 25, 12.5, 6.25, and 3.12 μM. Gentamicin was used at 4 μg/ml. 1×10^6/ml Acinetobacter baumannii ATCC® BAA-747″ or Pseudomonas aeruginosa ATCC® 27853™ (American Type Culture Collection, Manassas, Va.) were incubated with the peptides, negative buffer control (tryptone saline), and positive control gentamicin at pH 5.5 or 7.2. A 60 minute incubation was used for Acinetobacter baumannii ATCC® BAA747™, while a 180 minute incubation was used for Pseudomonas aeruginosa ATCC® 27853™. 50 μl aliquots were plated out on agar plates and incubated overnight. Colony forming units were counted after overnight incubation and CFU/ml calculated.

[2] = tested on: Pseudomonas aeruginosa ATCC® 27853™; format: cell-based; conditions: 180 minutes
[3] = tested on: cytokines in mouse cornea; test: Cytokines in corneal lysates after intrastromal injection (MILLIPLEX MAP mouse cytokine assay); format: in vivo; conditions: intrastromal 0.5 μl, 10^−4, 10^−5, 10^−6 M; 24 and 48 hours
Protocol: Corneas were injected intrastromally with 0.5 μl of peptide 95-122 at a final concentration of 10^−4 M, 10^−5 M, and 10^−6 M and vehicle (saline) control. Corneas were collected and flash frozen at 24 hours and 48 hours. Corneal lysates were analyzed for cytokines using the MILLIPLEX® MAP mouse cytokine assay for IL-7(A), IL-15 (B), IFN-γ (C), MIP1-α (D) (EMD Millipore Corp., Billerica, Mass.). The means of independent experimental values are shown ±SEM. ***P<0.001, **P<0.01, *P<0.05 by unpaired t-test as compared to vehicle treated controls. […] Corneas were injected intrastromally with 0.5 μl of peptide 95-122 at a final concentration of 10^−4 M, 10^−5 M, and 10^−6 M and vehicle (saline) control. Corneas were collected and flash frozen at 24 hours and 48 hours. Corneal lysates were analyzed for cytokines using the MILLIPLEX® MAP mouse cytokine assay for MIP1-β (EMD Millipore Corp., Billerica, Mass.). **P<0.01, *P<0.05 by unpaired t-test as compared to vehicle treated controls. […] Corneas were injected intrastromally with 0.5 μl of peptide 95-122 at a final concentration of 10^−4 M, 10^−5 M, and 10^−6 M and vehicle (saline) control. Corneas were collected and flash frozen at 24 hours and 48 hours. Corneal lysates were analyzed for cytokines using the MILLIPLEX® MAP mouse cytokine assay for KC (A), IL-1β (B), and GM-CSF (C) (EMD Millipore Corp., Billerica, Mass.). **P<0.01, *P<0.05 by unpaired t-test as compared to vehicle treated controls.

Sequence | activity against A. baumannii ([1]; 25 μM) | reduction of CFU/ml ([1]; pH 5.5) | reduction of CFU/ml ([1]; pH 7.2) | reduction of CFU (FIG. 14) ([2]; pH 5.5, highest concentrations (150 μg/ml)) | reduction of CFU/ml ([2]; pH 7.2, highest concentrations of peptides (25 μM)) | bactericidal activity against Pseudomonas aeruginosa ([2]; pH 7.2, peptides at 25 μM) | bactericidal activity against Acinetobacter baumannii ([1]; pH 5.5) | bactericidal activity against Acinetobacter baumannii ([1]; pH 7.2) | bactericidal activity against Pseudomonas aeruginosa ([2]; pH 5.5, peptides up to 25 μM) | GM-CSF in corneal lysates [3] | IFN-γ in corneal lysates [3] | IL-1β in corneal lysates [3] | IL-7 in corneal lysates [3] | IL-15 in corneal lysates [3] | KC in corneal lysates [3] | MIP1-13 in corneal lysates [3] | MIP1-α in corneal lysates [3]
GTRCQVAGWGSWHSGGRLSRFPRFVNV [Peptide 120-146WH] | highly active | ~4 logs | ~5.5 logs | 6 logs | 6 logs | as effective as the standard antibiotic gentamicin |  |  |  |  |  |  |  |  |  |  | 
LDREANLTSSVTILPLPLQNATVEAGTR (listed as Homo sapiens) [Peptide 95-122] |  |  |  |  |  | not active | not active | not active | not active | significantly increases | significantly increases | significantly increases | significantly increases | significantly increases | significantly increases | significantly increases | significantly increases
